# Measured values taken from US20040234501A1, “Hepatitis b virus proliferation inhibitor” (priority 2001, published 2004).
# Key:
# [1] = Liver function (GPT) in a patient with chronic hepatitis B; type: in vivo, human
# Method: (§1) Confirmation of the effect of IFN administration to a patient with chronic hepatitis B:
# (§2) Therefore, 3,000,000 units of IFN-α were administered for a total of 28 days.
# [2] = system: hepatitis B virus; experiment: Amount of hepatitis B virus in the blood (HBV-DNA) and emergence of resistant virus in a patient with chronic hepatitis B; type: in vivo, human; conditions: after termination of IFN-α; 3,000,000 units for a total of 28 days
# Method: as §1, §2
Compound,"liver function ([1]; 3,000,000 units of IFN-α in combination with lamivudine, resistant virus present)","liver function ([1]; after termination of IFN-α, 3,000,000 units for a total of 28 days)",amount of hepatitis B virus in the blood [2],GPT (liver function acutely worsened) ([1]; about 3 months after discontinuation of second lamivudine administration)
interferon-α [IFN-α],further worsened,worsened,again increased,
"Nc1ccn([C@@H]2CS[C@H](CO)O2)c(=O)n1 [lamivudine, reference compound]",,,,567
